IC50 data for two compounds are collected here from patent publication USRE47193E1, “Selectively substituted quinoline compounds” (EISAI R&D MANAGEMENT CO., LTD., priority 2013, dated 2019).

pIC50: −log10 of the molar value. Values joined by “and” are separate entries in the source; they are usually repeats but may differ in a detail not shown here. Equal values may be shown once. Read-outs that look alike come from different tables or passages of the source. Where only a bound is given, the exact number is not on record here.

The target of the assay is T1, TLR9 (Homo sapiens, UniProt Q9NR96).
T1 sequence (Q9NR96 26-1032): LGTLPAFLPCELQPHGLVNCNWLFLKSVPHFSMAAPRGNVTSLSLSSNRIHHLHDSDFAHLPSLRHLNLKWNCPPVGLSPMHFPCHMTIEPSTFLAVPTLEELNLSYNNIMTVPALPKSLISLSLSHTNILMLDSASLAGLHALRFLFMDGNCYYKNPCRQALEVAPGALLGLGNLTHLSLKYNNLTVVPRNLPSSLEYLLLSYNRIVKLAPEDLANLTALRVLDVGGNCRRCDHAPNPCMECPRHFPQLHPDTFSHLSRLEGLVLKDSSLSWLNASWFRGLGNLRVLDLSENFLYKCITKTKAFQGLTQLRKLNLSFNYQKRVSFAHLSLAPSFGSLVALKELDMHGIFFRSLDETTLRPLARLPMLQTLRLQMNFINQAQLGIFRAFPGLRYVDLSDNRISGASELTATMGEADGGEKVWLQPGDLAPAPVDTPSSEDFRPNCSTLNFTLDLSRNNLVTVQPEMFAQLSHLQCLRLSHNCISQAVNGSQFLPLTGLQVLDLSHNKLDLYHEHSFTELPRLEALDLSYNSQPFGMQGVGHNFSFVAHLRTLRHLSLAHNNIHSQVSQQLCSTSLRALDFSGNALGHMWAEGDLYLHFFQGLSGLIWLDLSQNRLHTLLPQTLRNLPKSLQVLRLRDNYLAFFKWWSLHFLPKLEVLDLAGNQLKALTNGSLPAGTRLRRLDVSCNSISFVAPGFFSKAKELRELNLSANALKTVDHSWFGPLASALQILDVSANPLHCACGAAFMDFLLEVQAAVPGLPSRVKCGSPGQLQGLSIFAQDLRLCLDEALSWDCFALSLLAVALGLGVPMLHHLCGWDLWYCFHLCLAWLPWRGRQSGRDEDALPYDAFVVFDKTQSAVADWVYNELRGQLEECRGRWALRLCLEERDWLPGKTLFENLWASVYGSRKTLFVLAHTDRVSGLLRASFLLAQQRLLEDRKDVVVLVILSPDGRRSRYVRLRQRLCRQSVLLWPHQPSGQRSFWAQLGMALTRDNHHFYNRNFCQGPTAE
Description: Subsequent human PBMC assay, DNA-mediated activation of TLR9, IL-6 and IFN-α. It is filed as cell-based. How it is done:
Human PBMC Cell-Based Assay. Human peripheral blood mononuclear cells (PBMC) were isolated from freshly-drawn heparinized (10 USP units/ml, Hospira, Lakeforest, Ill.) healthy donor whole blood by density gradient (Histopaque® 1077, Sigma, Inc., St. Louis, Mo.). Briefly, 25 ml blood was diluted with 15 ml PBS (without Ca^2+, Mg^2+) in a 50 ml conical tube, and 12 ml Histopaque was underlaid using a spinal needle. Tubes were centrifuged for 45 minutes at 1200 rpm (350×g), and PBMC were collected from the buffy coat. Cells were then washed twice in PBS, and red blood cells were lysed by suspension in 5 ml ammonium chloride solution (1× Red Blood Cell Lysis Buffer, eBioscience) for 5 minutes at room temperature. After a final wash in PBS, PBMC were resuspended at a final concentration of 2×10^6/ml in RPMI-1640 media with L-glutamine (Invitrogen) and supplemented with 25 mM HEPES (Mediatech, Inc, Manassas Va.), 10% fetal bovine serum (HyClone, Logan, Utah), and Penicillin-Streptomycin-Glutamine (Mediatech) and plated at 100 ul/well (2×10^5 cells/well) in tissue culture treated 96-well plates (Falcon).
Antagonist compounds solubilized and serial diluted in 100% DMSO were added in triplicate to cells to yield a final concentration of 0.1% DMSO (v/v). Hydroxychloroquine (Acros Organics) solubilized and serial diluted in PBS was added in triplicate to cells. PBMC were incubated with antagonist compounds or HCQ for 30 minutes at 37° C., 5% CO2 before adding various TLR agonist reagents in 100 ul complete media per well as follows (final concentrations indicated): R848 (Resiquimod; GLSynthesis, Worcester, Mass.) at 1 uM for TLR7 and TLR8, LPS (Sigma) at 10 ng/ml for TLR4, and CpG-2216 (InvivoGen) at 5 ug/ml for TLR9. To prepare a TLR7/8 agonist that mimics RNA-containing auto-antibody immune complexes in lupus patients, a 26-mer RNA with a sequence derived from human U1 snRNA stem loop IV [(sequence: […]-[…] (SEQ ID NO: 2) with phosphorothioate backbone] was synthesized (Dharmacon, Inc., Lafayette, Colo.), which has been shown previously to be a potent TLR7 and TLR8 agonist. This RNA molecule was diluted to 2.5 μM in serum-free RPMI, and mouse anti-human single stranded DNA monoclonal antibody (MAB3034, Millipore, Inc., Billerica, Mass.), which also cross-reacts with RNA, was added at a 1:25 dilution or at 1 ug/ml. The resulting “RNA-Ig” stimulus was incubated at room temperature for 15-30 minutes before adding to cells. PBMC were incubated with the various TLR agonists for 20 hours at 37° C., 5% CO2. Cell culture supernatants were collected, and levels of various human cytokines were assessed as indicated by standard ELISA procedure according to the manufacturer's recommended protocol (BD Biosciences, Inc., San Diego, Calif.). In a subsequent assay (Table 6) the ability of ER-899742 to block stimulation of normal PBMC by various TLR7/8 ligands, but not DNA-mediated activation of TLR9, was examined. In this assay cells were plated at 1×10^5 cells/well in 100 ul in 96-well plates.

As to `CCN(CCO)CCCC(C)Nc1ccnc2cc(Cl)ccc12` (stereo not drawn) [HCQ, hydroxychloroquine, reference compound], the pIC50 (human PBMC, ligand ODN2006-DOTAP, average of donors, read-out: IC50 IFN-α Ave.) is 5.52; the pIC50 (human PBMC, ligand ODN2006-DOTAP, average of donors, read-out: IC50 IL-6 Ave.) was 5.76; the pIC50 (human PBMC, ligand ODN2006-DOTAP, individual donors, read-out: IC50 IFN-α) is 6.04 and 5.39 and 5.51 and 5.40; the negative logarithm of the IC50 (pIC50) (human PBMC, ligand ODN2006-DOTAP, individual donors, read-out: IC50 IL-6) was 5.92 and 5.91 and 5.81 and 5.62 and 5.80 and 5.63; the negative-log IC50 (pIC50) (human PBMC, ligand ODN2216-Ig, average of donors, read-out: IC50 IFN-α Ave.) is 6.54; the pIC50 (human PBMC, ligand ODN2216-Ig, average of donors, read-out: IC50 IL-6 Ave.) is 5.62. Moreover, the negative-log IC50 (pIC50) (human PBMC, ligand ODN2216-Ig, individual donors, read-out: IC50 IFN-α) is 6.55 and 6.54.
In the case of `C[C@@H]1CN(c2ccc(C#N)c3ncccc23)C[C@H](C(=O)N[C@H]2CNC[C@H]2F)O1.Cl` [ER-899742, (2R,6R)-4-(8-cyanoquinolin-5-yl)-N-[(3S,4R)-4-fluoropyrrolidin-3-yl]-6-methylmorpholine-2-carboxamide hydrochloride], the negative logarithm of the IC50 (pIC50) is under 5.00 (IC50 IFN-α Ave., human PBMC, ligand ODN2006-DOTAP, average of donors); under 5.00 (IC50 IFN-α Ave., human PBMC, ligand ODN2216-Ig, average of donors); under 5.00 (IC50 IFN-α, human PBMC, ligand ODN2006-DOTAP, individual donors); under 5.00 (IC50 IFN-α, human PBMC, ligand ODN2216-Ig, individual donors); under 5.00 (IC50 IL-6, human PBMC, ligand ODN2006-DOTAP, individual donors); under 5.00 (IC50 IL-6, human PBMC, ligand ODN2216-Ig, individual donors). Moreover, the pIC50 was under 5.00 (IC50 IL-6 Ave., human PBMC, ligand ODN2006-DOTAP, average of donors) and under 5.00 (IC50 IL-6 Ave., human PBMC, ligand ODN2216-Ig, average of donors).

Broadly, the pIC50 is −log10 of the IC50, conventionally taken in molar units.
